The text below walks through data of patent US8946413B2 (Pfizer Inc., priority 2008, dated 2015).

The target in one assay is T1, CCR2 (Homo sapiens, UniProt P41597).
T1 construct: (leukophoresis pack); host or cells: human peripheral blood mononuclear cells (PBMCs) from a normal human leukophoresis pack
The experiment in a line: hCCR2 (125-I hMCP-1) small molecule binding assay on human PBMCs. The following applies: 125I-MCP-1, human PBMCs. Summed up: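 Ficoll-isolated human PBMCs pre-incubated 30 min or 1 h with compound at 0.333 μM final (0.67% DMSO), then incubated 30 min at room temperature with 150 pM 125I-hMCP-1 in RPMI/0.1% BSA/20 mM HEPES. Filter-bound radioactivity counted by gamma counter. 100% inhibition defined with 1 μM hMCP-1; IC50 plates run n=2.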

Assay [1] relates to streptozotocin (STZ)-induced diabetic rat model. The experiment in a line: Diabetic nephropathy rat model (STZ-induced), 24-hour urinary albumin excretion. Format: in vivo. The following applies: STZ diabetic male Wistar rats. From the text:
A rat model of diabetic nephropathy was used to determine the renal protective effect of pharmacological inhibition of CCR2. The streptozotocin (STZ)-induced diabetic rat model has been extensively used for studying the progression of diabetic renal disease. STZ injection causes immediate destruction of pancreatic β-cells, consequently hyperglycemia and progression of nephropathy similar to that seen in human diabetes mellitus. Diabetes was induced in male Wistar rats by single administration of STZ (45 mp/kg, iv). Three days after the induction of diabetes, fasting blood glucose levels were assessed. Animals with fasting blood glucose levels higher than 200 mg/dL were included in the study. All the treatments were then initiated. 1,5-anhydro-2,3-dideoxy-3-{[(1R,3S)-3-isopropyl-3-({(1S,4S)-5-[6-(trifluoromethyl)pyrimidin-4-yl]-2,5-diazabicyclo[2.2.1]hept-2-yl}carbonyl)cyclopentyl]amino}-4-O-methyl-D-erythro-pentitol was administered at doses of 0.03, 0.3, 1, and 10 mg/kg (mpk) (in the chow) for 11 weeks. 24-hour urine collections were obtained at 1, 4, 8, and 11 weeks after the treatment for assessing 24-hour urinary albumin excretion (UAE).

Where [2] appears, read: 30 min preincubation, read-out: IC50 (nM) 30 min preinc.
Where [3] appears, read: 1 hr preincubation, read-out: IC50 (nM) 1 hr preinc.

The IC50 is the concentration at which inhibition is half-maximal.

Molecules are shown by their SMILES. Where two headings read alike, the source gives them in different places.

T1 sequence (P41597 whole entry): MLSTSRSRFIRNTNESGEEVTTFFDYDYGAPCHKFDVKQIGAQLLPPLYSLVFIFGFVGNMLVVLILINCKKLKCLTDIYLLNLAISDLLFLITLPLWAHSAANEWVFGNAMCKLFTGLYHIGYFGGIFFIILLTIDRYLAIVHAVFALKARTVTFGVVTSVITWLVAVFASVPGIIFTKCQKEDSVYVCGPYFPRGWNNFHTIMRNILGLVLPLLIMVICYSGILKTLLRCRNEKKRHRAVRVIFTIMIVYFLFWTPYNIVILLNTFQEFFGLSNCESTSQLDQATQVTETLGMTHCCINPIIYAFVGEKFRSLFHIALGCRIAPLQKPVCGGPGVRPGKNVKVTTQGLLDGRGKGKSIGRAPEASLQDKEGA

For the compound `CO[C@@H]1COCC[C@@H]1N[C@@H]1CC[C@@](C(=O)N2C[C@@H]3C[C@H]2CN3c2cc(C(F)(F)F)ncn2)(C(C)C)C1` [Example 13, 1,5-anhydro-2,3-dideoxy-3-{[(1R,3S)-3-isopropyl-3-({(1S,4S)-5-[6-(trifluoromethyl)pyrimidin-4-yl]-2,5-diazabicyclo[2.2.1]hept-2-yl}carbonyl)cyclopentyl]amino}-4-O-methyl-D-erythro-pentitol], the IC50 on CCR2 (setting [2]) came to 25.4 nM; at CCR2 (setting [3]) it was 3.68 nM. Also, the “24-hour urinary albumin excretion (UAE)” value worked out at 2.17±1.31 mg/24 h in assay [1] (0.03 mpk in the chow, week 11); 1.73±0.69 mg/24 h in assay [1] (0.3 mpk in the chow, week 8); 1.96±0.85 mg/24 h in assay [1] (0.3 mpk in the chow, week 11); 1.09±0.20 mg/24 h in assay [1] (1 mpk in the chow, week 8); 1.66±0.65 mg/24 h in assay [1] (1 mpk in the chow, week 11); 0.71±0.22 mg/24 h in assay [1] (10 mpk in the chow, week 8). The “24-hour urinary albumin excretion (UAE)” value in assay [1] (10 mpk in the chow, week 11) was found to be 1.02±0.32 mg/24 h.

Turning to `CO[C@@H]1COCC[C@@H]1N[C@@H]1CC[C@@](C(=O)N2C[C@@H]3C[C@H]2CN3c2cc(C(F)(F)F)ccn2)(C(O)C(F)(F)F)C1` (stereo partly drawn) [Example 63, ((1S,3R)-3-((3S,4S)-3-methoxy-tetrahydro-2H-pyran-4-ylamino)-1-(2,2,2-trifluoro-1-hydroxyethyl)cyclopentyl)((1S,4S)-5-(4-(trifluoromethyl)pyridin-2-yl)-2,5-diaza-bicyclo[2.2.1]heptan-2-yl)methanone], on CCR2 (setting [3]), the IC50 stood at 1.1 nM.

For `CC[C@]1(C(=O)N2C[C@@H]3C[C@H]2CN3c2cncc(C(F)(F)F)n2)CC[C@@H](N[C@H]2CCOC[C@H]2OC)C1` [Example 4, 1,5-anhydro-2,3-dideoxy-3-{[(1R,3S)-3-ethyl-3-({(1S,4S)-5-[6-(trifluoromethyl)pyrazin-2-yl]-2,5-diazabicyclo[2.2.1]hept-2-yl}carbonyl)cyclopentyl]amino}-4-O-methyl-D-erythro-pentitol], on CCR2 (setting [2]), the IC50 amounted to 3.98 nM.

For `CC[C@]1(C(=O)N2C[C@@H]3C[C@H]2CN3c2cc(C(F)(F)F)ccn2)CC[C@@H](N[C@H]2CCOC[C@H]2OC)C1` [Example 1, 1,5-anhydro-2,3-dideoxy-3-{[(1R,3S)-3-ethyl-3-({(1S,4S)-5-[4-(trifluoromethyl)pyridin-2-yl]-2,5-diazabicyclo[2.2.1]hept-2-yl}carbonyl)cyclopentyl]amino}-4-O-methyl-D-erythro-pentitol], the IC50 on CCR2 (setting [2]) is 2.47 nM.

With `CO[C@@H]1COCC[C@@H]1N[C@@H]1CC[C@@](C(=O)N2C[C@@H]3C(O)[C@H]2CN3C(=O)OC(C)(C)C)(C(C)C)C1` (stereo partly drawn) [Example 70, (1R,4R,7S)-tert-butyl 7-hydroxy-5-((1S)-1-isopropyl-3-(3-methoxy-tetrahydro-2H-pryan-4-ylamino)cyclopentanecarbonyl)-2,5-diaza-bicyclo[2.2.1]heptane-2-carboxylate], the IC50 at CCR2 (setting [2]) turned out to be 8.7 nM.

As to `CO[C@@H]1COCC[C@@H]1N[C@@H]1CC[C@@](C(=O)N2C[C@@H]3C(F)[C@H]2CN3C(=O)OC(C)(C)C)(C(C)C)C1` (stereo partly drawn) [Example 71, tert-butyl 7-fluoro-5-((1S,3R)-1-isopropyl-3-((3S,4S)-3-methoxy-tetrahydro-2H-pyran-4-ylamino)cyclopentanecarbonyl)-2,5-diaza-bicyclo[2.2.1]heptane-2-carboxylate], the IC50 at CCR2 (setting [2]) worked out at 3.7 nM.
